Source: PubChem BioAssay AID2060499 (Molecular Pharmacology Branch, DTP, NCI, 2025)

System: 777334-354-R2-J4-PDC tumor spheroids with HUVEC/MSC, viability
Experiment: Anticancer human tumor 777334-354-R2-J4-PDC patient-derived pancreatic adenocarcinoma cell line growth inhibition [GQUAD]
Settings: for IC50: curve of first compound; for viability, T/C: stronger effect = lower value
In short: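 Viability of tumor cells grown as complex spheroids with endothelial and stromal cells, exposed to drug combinations. Top concentration at or near clinical Cmax (else 10 microM), diluted in half-log increments.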

[1] = second compound 0.0316 µM, first compound 0.000999 µM
[2] = second compound 0.0316 µM, first compound 0.00316 µM
[3] = second compound 0.0316 µM, first compound 0.00999 µM
[4] = second compound 0.0316 µM, first compound 0.0316 µM
[5] = second compound 0.0316 µM, first compound 0.0999 µM
[6] = second compound 0.0316 µM, first compound 0.316 µM
[7] = second compound 0.1 µM, first compound 0.000999 µM
[8] = second compound 0.1 µM, first compound 0.00316 µM
[9] = second compound 0.1 µM, first compound 0.00999 µM
[10] = second compound 0.1 µM, first compound 0.0316 µM
[11] = second compound 0.1 µM, first compound 0.0999 µM
[12] = second compound 0.1 µM, first compound 0.316 µM
[13] = second compound 0.316 µM, first compound 0.000999 µM
[14] = second compound 0.316 µM, first compound 0.00316 µM
[15] = second compound 0.316 µM, first compound 0.00999 µM
[16] = second compound 0.316 µM, first compound 0.0316 µM
[17] = second compound 0.316 µM, first compound 0.0999 µM
[18] = second compound 0.316 µM, first compound 0.316 µM
[19] = second compound 1 µM, first compound 0.000999 µM
[20] = second compound 1 µM, first compound 0.00316 µM
[21] = second compound 1 µM, first compound 0.00999 µM
[22] = second compound 1 µM, first compound 0.0316 µM
[23] = second compound 1 µM, first compound 0.0999 µM
[24] = second compound 1 µM, first compound 0.316 µM
[25] = second compound 3.16 µM, first compound 0.000999 µM
[26] = second compound 3.16 µM, first compound 0.00316 µM
[27] = second compound 3.16 µM, first compound 0.00999 µM
[28] = second compound 3.16 µM, first compound 0.0316 µM
[29] = second compound 3.16 µM, first compound 0.0999 µM
[30] = second compound 3.16 µM, first compound 0.316 µM
[31] = second compound 10 µM, first compound 0.000999 µM
[32] = second compound 10 µM, first compound 0.00316 µM
[33] = second compound 10 µM, first compound 0.00999 µM
[34] = second compound 10 µM, first compound 0.0316 µM
[35] = second compound 10 µM, first compound 0.0999 µM
[36] = second compound 10 µM, first compound 0.316 µM
[37] = second compound 0.0316 µM, first compound 0.1 µM
[38] = second compound 0.0316 µM, first compound 1 µM
[39] = second compound 0.0316 µM, first compound 3.16 µM
[40] = second compound 0.0316 µM, first compound 10 µM
[41] = second compound 0.1 µM, first compound 0.1 µM
[42] = second compound 0.1 µM, first compound 1 µM
[43] = second compound 0.1 µM, first compound 3.16 µM
[44] = second compound 0.1 µM, first compound 10 µM
[45] = second compound 0.316 µM, first compound 0.1 µM
[46] = second compound 0.316 µM, first compound 1 µM
[47] = second compound 0.316 µM, first compound 3.16 µM
[48] = second compound 0.316 µM, first compound 10 µM
[49] = second compound 1 µM, first compound 0.1 µM
[50] = second compound 1 µM, first compound 1 µM
[51] = second compound 1 µM, first compound 3.16 µM
[52] = second compound 1 µM, first compound 10 µM
[53] = second compound 3.16 µM, first compound 0.1 µM
[54] = second compound 3.16 µM, first compound 1 µM
[55] = second compound 3.16 µM, first compound 3.16 µM
[56] = second compound 3.16 µM, first compound 10 µM
[57] = second compound 10 µM, first compound 0.1 µM
[58] = second compound 10 µM, first compound 1 µM
[59] = second compound 10 µM, first compound 3.16 µM
[60] = second compound 10 µM, first compound 10 µM
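Also: spheroids exposed to compounds for 7 days before readout.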

Compound: CC[C@@]1(O)C(=O)OCc2c1cc1n(c2=O)Cc2cc3c(CN(C)C)c(O)ccc3nc2-1 + Cc1cnc(CNC(=O)c2c(=O)c3ccc(N4CCCN(C)CC4)nc3n3c2sc2ccccc23)cn1
- IC50 (second compound 0.0316 µM): 172 nM
- IC50 (second compound 0.1 µM): 241 nM
- IC50 (second compound 0.316 µM): 222 nM
- IC50 (second compound 1 µM): 233 nM
- IC50 (second compound 3.16 µM): 225 nM
- IC50 (second compound 10 µM): 78.7 nM
- viability, T/C [1]: 90.1%
- viability, T/C [2]: 79.8%
- viability, T/C [3]: 95.2%
- viability, T/C [4]: 80.7%
- viability, T/C [5]: 59.4%
- viability, T/C [6]: 39.7%
- viability, T/C [7]: 102%
- viability, T/C [8]: 74.7%
- viability, T/C [9]: 83.1%
- viability, T/C [10]: 66.8%
- viability, T/C [11]: 60.8%
- viability, T/C [12]: 45%
- viability, T/C [13]: 73.8%
- viability, T/C [14]: 76.3%
- viability, T/C [15]: 76.7%
- viability, T/C [16]: 70.1%
- viability, T/C [17]: 59.3%
- viability, T/C [18]: 46%
- viability, T/C [19]: 64.7%
- viability, T/C [20]: 74.8%
- viability, T/C [21]: 76%
- viability, T/C [22]: 69.5%
- viability, T/C [23]: 57%
- viability, T/C [24]: 47%
- viability, T/C [25]: 56.8%
- viability, T/C [26]: 67.7%
- viability, T/C [27]: 62.2%
- viability, T/C [28]: 63.3%
- viability, T/C [29]: 54.9%
- viability, T/C [30]: 47.4%
- viability, T/C [31]: 56.1%
- viability, T/C [32]: 57.9%
- viability, T/C [33]: 60.2%
- viability, T/C [34]: 53.2%
- viability, T/C [35]: 47.8%
- viability, T/C [36]: 38.9%

Compound: CCc1c2c(nc3ccc(O)cc13)-c1cc3c(c(=O)n1C2)COC(=O)[C@]3(O)CC + Cc1cnc(CNC(=O)c2c(=O)c3ccc(N4CCCN(C)CC4)nc3n3c2sc2ccccc23)cn1
- IC50 (second compound 0.0316 µM): 4.38 nM
- IC50 (second compound 0.1 µM): 4.44 nM
- IC50 (second compound 0.316 µM): 3.86 nM
- IC50 (second compound 1 µM): 4.62 nM
- IC50 (second compound 3.16 µM): 1.2 nM
- IC50 (second compound 10 µM): 1.84 nM
- viability, T/C [1]: 84.8%
- viability, T/C [2]: 49.6%
- viability, T/C [3]: 39.5%
- viability, T/C [4]: 25.7%
- viability, T/C [5]: 13.8%
- viability, T/C [6]: 7.76%
- viability, T/C [7]: 84.4%
- viability, T/C [8]: 54.1%
- viability, T/C [9]: 38.1%
- viability, T/C [10]: 23.2%
- viability, T/C [11]: 17.4%
- viability, T/C [12]: 10.6%
- viability, T/C [13]: 63.6%
- viability, T/C [14]: 54.1%
- viability, T/C [15]: 37.1%
- viability, T/C [16]: 29%
- viability, T/C [17]: 19.1%
- viability, T/C [18]: 10.3%
- viability, T/C [19]: 56%
- viability, T/C [20]: 56.8%
- viability, T/C [21]: 40.6%
- viability, T/C [22]: 32.1%
- viability, T/C [23]: 16.7%
- viability, T/C [24]: 7.38%
- viability, T/C [25]: 49.5%
- viability, T/C [26]: 49.4%
- viability, T/C [27]: 40.1%
- viability, T/C [28]: 28.4%
- viability, T/C [29]: 13.8%
- viability, T/C [30]: 4.92%
- viability, T/C [31]: 57.5%
- viability, T/C [32]: 40.6%
- viability, T/C [33]: 33.6%
- viability, T/C [34]: 27.9%
- viability, T/C [35]: 0.34%
- viability, T/C [36]: 0.24%

Compound: COc1cc(C2c3cc4c(cc3C(OC3OC5COC(C)OC5C(O)C3O)C3COC(=O)C23)OCO4)cc(OC)c1O (stereo not drawn) + Cc1cnc(CNC(=O)c2c(=O)c3ccc(N4CCCN(C)CC4)nc3n3c2sc2ccccc23)cn1
- IC50 (second compound 0.0316 µM): 6180 nM
- IC50 (second compound 0.1 µM): 4440 nM
- IC50 (second compound 0.316 µM): 3710 nM
- IC50 (second compound 1 µM): 5140 nM
- IC50 (second compound 3.16 µM): 2490 nM
- IC50 (second compound 10 µM): 2910 nM
- viability, T/C [4]: 94.8%
- viability, T/C [37]: 90.6%
- viability, T/C [6]: 85.2%
- viability, T/C [38]: 70.9%
- viability, T/C [39]: 54.7%
- viability, T/C [40]: 46.6%
- viability, T/C [10]: 84.6%
- viability, T/C [41]: 78.5%
- viability, T/C [12]: 79.6%
- viability, T/C [42]: 73.4%
- viability, T/C [43]: 56.1%
- viability, T/C [44]: 34.9%
- viability, T/C [16]: 79.3%
- viability, T/C [45]: 85%
- viability, T/C [18]: 77%
- viability, T/C [46]: 72.7%
- viability, T/C [47]: 51.4%
- viability, T/C [48]: 39.7%
- viability, T/C [22]: 68.4%
- viability, T/C [49]: 75.2%
- viability, T/C [24]: 76.1%
- viability, T/C [50]: 64%
- viability, T/C [51]: 60%
- viability, T/C [52]: 37.5%
- viability, T/C [28]: 57.1%
- viability, T/C [53]: 64.5%
- viability, T/C [30]: 61.6%
- viability, T/C [54]: 61.1%
- viability, T/C [55]: 47.1%
- viability, T/C [56]: 40.7%
- viability, T/C [34]: 58.6%
- viability, T/C [57]: 57.3%
- viability, T/C [36]: 55.2%
- viability, T/C [58]: 52%
- viability, T/C [59]: 51.5%
- viability, T/C [60]: 34.7%

Compound: COc1cccc2c1C(=O)c1c(O)c3c(c(O)c1C2=O)CC(O)(C(=O)CO)CC3OC1CC(N)C(O)C(C)O1 (stereo not drawn) + Cc1cnc(CNC(=O)c2c(=O)c3ccc(N4CCCN(C)CC4)nc3n3c2sc2ccccc23)cn1
- IC50 (second compound 0.0316 µM): 878 nM
- IC50 (second compound 0.1 µM): 769 nM
- IC50 (second compound 0.316 µM): 1040 nM
- IC50 (second compound 1 µM): 869 nM
- IC50 (second compound 3.16 µM): 684 nM
- IC50 (second compound 10 µM): 399 nM
- viability, T/C [4]: 88.3%
- viability, T/C [37]: 87.2%
- viability, T/C [6]: 81.8%
- viability, T/C [38]: 44.3%
- viability, T/C [39]: 23.4%
- viability, T/C [40]: 11.9%
- viability, T/C [10]: 83.8%
- viability, T/C [41]: 77.2%
- viability, T/C [12]: 76.8%
- viability, T/C [42]: 40.7%
- viability, T/C [43]: 22.5%
- viability, T/C [44]: 10.7%
- viability, T/C [16]: 73.5%
- viability, T/C [45]: 80.8%
- viability, T/C [18]: 63.3%
- viability, T/C [46]: 52.1%
- viability, T/C [47]: 26.3%
- viability, T/C [48]: 6.61%
- viability, T/C [22]: 63%
- viability, T/C [49]: 70.4%
- viability, T/C [24]: 67.3%
- viability, T/C [50]: 45.4%
- viability, T/C [51]: 21.8%
- viability, T/C [52]: 4.42%
- viability, T/C [28]: 64.2%
- viability, T/C [53]: 64.1%
- viability, T/C [30]: 68%
- viability, T/C [54]: 40.9%
- viability, T/C [55]: 16%
- viability, T/C [56]: 0.58%
- viability, T/C [34]: 57.3%
- viability, T/C [57]: 55.8%
- viability, T/C [36]: 55.8%
- viability, T/C [58]: 35.3%
- viability, T/C [59]: 11.9%
- viability, T/C [60]: 0.28%
